Experiments:
[1] = target: Serine/threonine-protein kinase Nek9 (Homo sapiens, UniProt Q8TD19); experiment: Inhibition of NEK9 (unknown origin)
[2] = target: MAP kinase-activated protein kinase 2 (Homo sapiens, UniProt P49137); experiment: Inhibition of MAPKAPK2 (unknown origin)
[3] = target: Ephrin type-A receptor 1 (Homo sapiens, UniProt P21709); experiment: Inhibition of EPHA1 (unknown origin)
[4] = target: T1, Calcium/calmodulin-dependent protein kinase type 1D (Homo sapiens, UniProt Q8IU85); details: dose 100.0 nM
Description: Inhibition of CAMK1 delta (unknown origin) at 100 nM relative to control

[5] = target: Calcium/calmodulin-dependent protein kinase type II subunit alpha (Homo sapiens, UniProt Q9UQM7); experiment: Inhibition of CAMK2 alpha (unknown origin)
[6] = target: Glycogen synthase kinase-3 alpha (Homo sapiens, UniProt P49840); experiment: Inhibition of GSK3alpha (unknown origin)
[7] = target: T2, Serine/threonine-protein kinase B-raf (Homo sapiens, UniProt P15056); details: dose 100.0 nM
T2 sequence (P15056 whole entry): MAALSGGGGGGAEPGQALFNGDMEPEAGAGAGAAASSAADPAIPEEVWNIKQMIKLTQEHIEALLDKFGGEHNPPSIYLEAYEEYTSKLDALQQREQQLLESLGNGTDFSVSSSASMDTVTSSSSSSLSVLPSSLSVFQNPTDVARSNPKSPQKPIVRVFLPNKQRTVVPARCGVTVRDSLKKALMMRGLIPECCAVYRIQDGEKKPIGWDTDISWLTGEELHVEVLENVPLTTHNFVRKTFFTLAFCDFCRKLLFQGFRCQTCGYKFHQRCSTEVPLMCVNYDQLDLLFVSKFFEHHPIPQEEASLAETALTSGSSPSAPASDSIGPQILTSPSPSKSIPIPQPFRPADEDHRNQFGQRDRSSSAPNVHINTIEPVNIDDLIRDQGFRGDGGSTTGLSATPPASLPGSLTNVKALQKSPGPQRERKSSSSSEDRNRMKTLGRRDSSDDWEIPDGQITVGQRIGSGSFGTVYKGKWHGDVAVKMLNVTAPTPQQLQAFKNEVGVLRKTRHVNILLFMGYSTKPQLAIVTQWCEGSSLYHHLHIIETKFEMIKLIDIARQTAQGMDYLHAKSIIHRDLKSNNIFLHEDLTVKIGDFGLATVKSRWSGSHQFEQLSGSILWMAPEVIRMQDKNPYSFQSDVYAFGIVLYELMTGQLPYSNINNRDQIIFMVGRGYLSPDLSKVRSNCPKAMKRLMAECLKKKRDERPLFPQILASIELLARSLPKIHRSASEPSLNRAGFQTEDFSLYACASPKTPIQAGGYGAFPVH
Description: Inhibition of BRAF (unknown origin) at 100 nM relative to control

[8] = test system: RAF proto-oncogene serine/threonine-protein kinase (Homo sapiens), P04049 [Y340D]; details: dose 100.0 nM
Description: Inhibition of RAF1 Y340D (unknown origin) at 100 nM relative to control

[9] = target: Insulin receptor (Homo sapiens, UniProt P06213); experiment: Inhibition of INSR (unknown origin)
[10] = target: Tyrosine-protein kinase Blk (Homo sapiens, UniProt P51451); experiment: Inhibition of BLK (unknown origin)
[11] = target: Tyrosine-protein kinase Srms (Homo sapiens, UniProt Q9H3Y6); experiment: Inhibition of SRMS (unknown origin)
[12] = target: Protein-tyrosine kinase 6 (Homo sapiens, UniProt Q13882); experiment: Inhibition of PTK6 (unknown origin)
Protein-tyrosine kinase 6, sequence (Q13882 whole entry): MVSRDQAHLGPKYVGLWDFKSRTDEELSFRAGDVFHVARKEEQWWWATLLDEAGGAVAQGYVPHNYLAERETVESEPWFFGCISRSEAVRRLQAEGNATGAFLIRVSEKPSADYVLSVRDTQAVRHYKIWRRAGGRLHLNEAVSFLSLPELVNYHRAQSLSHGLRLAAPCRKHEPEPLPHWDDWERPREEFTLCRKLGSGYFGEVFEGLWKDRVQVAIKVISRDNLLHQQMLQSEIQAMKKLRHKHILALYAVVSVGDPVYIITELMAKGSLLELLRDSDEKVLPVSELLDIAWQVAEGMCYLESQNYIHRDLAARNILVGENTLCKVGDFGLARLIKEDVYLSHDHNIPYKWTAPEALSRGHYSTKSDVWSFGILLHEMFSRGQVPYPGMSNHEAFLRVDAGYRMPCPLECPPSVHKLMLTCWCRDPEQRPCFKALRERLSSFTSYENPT

[13] = target: Proto-oncogene tyrosine-protein kinase ROS (Homo sapiens, UniProt P08922); experiment: Inhibition of ROS1 (unknown origin)
[14] = target: Serine/threonine-protein kinase PLK3 (Homo sapiens, UniProt Q9H4B4); experiment: Inhibition of PLK3 (unknown origin)
[15] = target: Tyrosine-protein kinase Yes (Homo sapiens, UniProt P07947); experiment: Inhibition of YES1 (unknown origin)
[16] = target: Tyrosine-protein kinase Fgr (Homo sapiens) (UniProt P09769); details: dose 100.0 nM
Description: Inhibition of FGR (unknown origin) at 100 nM relative to control

[17] = target: Tyrosine-protein kinase ITK/TSK (Homo sapiens, UniProt Q08881); experiment: Inhibition of ITK (unknown origin)
Tyrosine-protein kinase ITK/TSK, sequence (Q08881 whole entry): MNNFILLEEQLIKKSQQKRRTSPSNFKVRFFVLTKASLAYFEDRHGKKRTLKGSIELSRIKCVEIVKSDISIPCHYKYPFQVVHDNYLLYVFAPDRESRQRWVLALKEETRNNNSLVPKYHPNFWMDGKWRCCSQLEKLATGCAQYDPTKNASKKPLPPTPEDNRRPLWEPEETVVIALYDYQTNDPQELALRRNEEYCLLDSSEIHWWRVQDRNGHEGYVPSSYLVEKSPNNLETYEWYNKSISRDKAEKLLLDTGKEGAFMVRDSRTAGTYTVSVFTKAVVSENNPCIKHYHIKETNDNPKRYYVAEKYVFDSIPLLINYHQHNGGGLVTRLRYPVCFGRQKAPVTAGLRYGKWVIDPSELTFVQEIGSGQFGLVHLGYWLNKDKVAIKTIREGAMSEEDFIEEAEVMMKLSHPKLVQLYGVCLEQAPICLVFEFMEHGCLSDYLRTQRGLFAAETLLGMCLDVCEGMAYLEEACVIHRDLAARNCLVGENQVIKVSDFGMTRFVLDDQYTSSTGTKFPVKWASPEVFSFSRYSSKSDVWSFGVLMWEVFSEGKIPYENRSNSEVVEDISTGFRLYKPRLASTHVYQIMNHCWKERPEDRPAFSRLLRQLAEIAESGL

[18] = target: Platelet-derived growth factor receptor alpha (Homo sapiens, UniProt P16234); experiment: Inhibition of PDGFRA (unknown origin)
Platelet-derived growth factor receptor alpha, sequence (P16234 whole entry): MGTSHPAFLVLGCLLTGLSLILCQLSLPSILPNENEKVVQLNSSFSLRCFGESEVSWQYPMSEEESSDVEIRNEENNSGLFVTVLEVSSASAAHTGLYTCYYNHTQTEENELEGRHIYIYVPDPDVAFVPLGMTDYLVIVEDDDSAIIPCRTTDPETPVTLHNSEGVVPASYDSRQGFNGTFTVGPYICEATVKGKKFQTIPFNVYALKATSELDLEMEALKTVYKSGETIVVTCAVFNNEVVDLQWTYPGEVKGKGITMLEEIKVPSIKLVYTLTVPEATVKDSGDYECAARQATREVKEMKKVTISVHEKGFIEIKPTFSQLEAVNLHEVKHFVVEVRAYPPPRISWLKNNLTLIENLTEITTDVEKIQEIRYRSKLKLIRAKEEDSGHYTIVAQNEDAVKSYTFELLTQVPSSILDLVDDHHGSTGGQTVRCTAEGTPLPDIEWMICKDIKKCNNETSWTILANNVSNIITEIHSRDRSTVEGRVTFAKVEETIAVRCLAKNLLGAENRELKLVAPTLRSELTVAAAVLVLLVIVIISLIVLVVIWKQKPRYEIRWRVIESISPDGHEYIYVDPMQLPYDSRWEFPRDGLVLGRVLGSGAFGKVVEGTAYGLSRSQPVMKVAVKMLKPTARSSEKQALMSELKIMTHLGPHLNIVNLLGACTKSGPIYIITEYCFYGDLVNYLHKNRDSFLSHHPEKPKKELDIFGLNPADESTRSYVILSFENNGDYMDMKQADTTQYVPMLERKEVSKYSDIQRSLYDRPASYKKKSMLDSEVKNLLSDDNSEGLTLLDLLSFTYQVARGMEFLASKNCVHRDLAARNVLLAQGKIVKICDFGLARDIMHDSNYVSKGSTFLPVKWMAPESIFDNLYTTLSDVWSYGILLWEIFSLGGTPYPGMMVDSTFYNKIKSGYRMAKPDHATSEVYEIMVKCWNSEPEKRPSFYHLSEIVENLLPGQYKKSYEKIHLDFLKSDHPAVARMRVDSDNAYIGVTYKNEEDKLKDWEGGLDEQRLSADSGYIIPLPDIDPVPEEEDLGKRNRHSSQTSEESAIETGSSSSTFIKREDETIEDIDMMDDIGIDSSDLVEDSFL

[19] = target: Serine/threonine-protein kinase TBK1 (Homo sapiens) (UniProt Q9UHD2); details: dose 100.0 nM
Description: Inhibition of TBK1 (unknown origin) at 100 nM relative to control

[20] = target: Serine/threonine-protein kinase Nek6 (Homo sapiens, UniProt Q9HC98); experiment: Inhibition of NEK6 (unknown origin)
[21] = target: Serine/threonine-protein kinase N1 (Homo sapiens, UniProt Q16512); details: dose 100.0 nM
Description: Inhibition of PKN1 (unknown origin) at 100 nM relative to control

[22] = target: Serine/threonine-protein kinase 26 (Homo sapiens, UniProt Q9P289); details: dose 100.0 nM
Description: Inhibition of MST4 (unknown origin) at 100 nM relative to control

[23] = target: Mitogen-activated protein kinase kinase kinase 9 (Homo sapiens, UniProt P80192); details: dose 100.0 nM
Description: Inhibition of MAP3K9 (unknown origin) at 100 nM relative to control

[24] = target: Mitogen-activated protein kinase 14 (Homo sapiens, UniProt Q16539); experiment: Inhibition of MAPK14 (unknown origin)
Mitogen-activated protein kinase 14, sequence (Q16539 whole entry): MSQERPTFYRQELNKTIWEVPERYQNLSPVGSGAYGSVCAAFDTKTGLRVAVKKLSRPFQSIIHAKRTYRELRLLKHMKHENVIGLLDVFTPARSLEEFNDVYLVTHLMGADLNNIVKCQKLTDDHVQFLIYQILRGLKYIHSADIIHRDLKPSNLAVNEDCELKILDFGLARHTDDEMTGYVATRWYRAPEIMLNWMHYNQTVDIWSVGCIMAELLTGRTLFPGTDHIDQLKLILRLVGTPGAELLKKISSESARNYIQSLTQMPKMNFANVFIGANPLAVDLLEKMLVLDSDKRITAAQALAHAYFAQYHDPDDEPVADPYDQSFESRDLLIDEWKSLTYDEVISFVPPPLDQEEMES

[25] = target: Dual specificity tyrosine-phosphorylation-regulated kinase 3 (Homo sapiens, UniProt O43781); experiment: Inhibition of DYRK3 (unknown origin)
[26] = target: Tyrosine-protein kinase SYK (Homo sapiens, UniProt P43405); experiment: Inhibition of SYK (unknown origin)
[27] = target: Cyclin-dependent kinase 1/cyclin B1 (Homo sapiens) (UniProt P06493+P14635); details: dose 100.0 nM
Cyclin-dependent kinase 1/cyclin B1 (Homo sapiens), sequence (P06493 whole entry, looked up): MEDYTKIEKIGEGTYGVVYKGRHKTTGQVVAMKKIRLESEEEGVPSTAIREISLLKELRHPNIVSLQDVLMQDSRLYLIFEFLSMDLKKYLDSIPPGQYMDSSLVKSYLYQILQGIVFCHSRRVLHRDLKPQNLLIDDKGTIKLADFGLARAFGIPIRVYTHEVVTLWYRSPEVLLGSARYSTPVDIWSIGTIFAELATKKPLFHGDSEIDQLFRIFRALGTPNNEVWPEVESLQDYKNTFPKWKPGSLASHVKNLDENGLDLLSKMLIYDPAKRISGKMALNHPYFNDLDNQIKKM
Cyclin-dependent kinase 1/cyclin B1 (Homo sapiens), sequence (P14635 whole entry, looked up): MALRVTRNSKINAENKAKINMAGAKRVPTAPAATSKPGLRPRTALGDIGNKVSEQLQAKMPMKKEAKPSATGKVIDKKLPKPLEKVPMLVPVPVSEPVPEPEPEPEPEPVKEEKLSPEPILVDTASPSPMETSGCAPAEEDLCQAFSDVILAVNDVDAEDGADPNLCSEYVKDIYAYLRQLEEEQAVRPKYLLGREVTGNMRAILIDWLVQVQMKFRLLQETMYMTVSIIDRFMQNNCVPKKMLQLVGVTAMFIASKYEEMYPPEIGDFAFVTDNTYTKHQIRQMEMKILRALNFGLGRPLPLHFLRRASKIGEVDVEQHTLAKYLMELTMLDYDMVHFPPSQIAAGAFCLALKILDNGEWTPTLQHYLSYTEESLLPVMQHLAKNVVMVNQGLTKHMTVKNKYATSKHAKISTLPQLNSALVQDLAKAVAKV
Description: Inhibition of CDK1/cyclin B (unknown origin) at 100 nM relative to control

[28] = target: Protein kinase C beta type (Homo sapiens, UniProt P05771); experiment: Inhibition of PRKCB1 (unknown origin)
[29] = target: Mitogen-activated protein kinase kinase kinase 8 (Homo sapiens, UniProt P41279); details: dose 100.0 nM
Description: Inhibition of MAP3K8 (unknown origin) at 100 nM relative to control

[30] = target: AMP-activated protein kinase (AMPK) alpha-1/beta-1/gamma-1 (Homo sapiens) (UniProt P54619+Q9Y478+Q13131); details: dose 100.0 nM
Description: Inhibition of AMPK alpha1/beta1/gamma1 (unknown origin) at 100 nM relative to control

[31] = target: T1, Calcium/calmodulin-dependent protein kinase type 1D; experiment: Inhibition of CAMK1 delta (unknown origin)
[32] = target: Ephrin type-A receptor 8 (Homo sapiens, UniProt P29322); experiment: Inhibition of EPHA8 (unknown origin)
[33] = target: BDNF/NT-3 growth factors receptor (Homo sapiens, UniProt Q16620); details: dose 100.0 nM
Description: Inhibition of NTRK2 (unknown origin) at 100 nM relative to control

[34] = target: Homeodomain-interacting protein kinase 1 (Homo sapiens, UniProt Q86Z02); experiment: Inhibition of HIPK1 (unknown origin)
[35] = target: Mitogen-activated protein kinase 3 (Homo sapiens, UniProt P27361); experiment: Inhibition of MAPK3 (unknown origin)
[36] = target: Activin receptor type-1B (Homo sapiens, UniProt P36896); experiment: Inhibition of ACVR1B (unknown origin)
Activin receptor type-1B, sequence (P36896 whole entry, the tested form may be a part): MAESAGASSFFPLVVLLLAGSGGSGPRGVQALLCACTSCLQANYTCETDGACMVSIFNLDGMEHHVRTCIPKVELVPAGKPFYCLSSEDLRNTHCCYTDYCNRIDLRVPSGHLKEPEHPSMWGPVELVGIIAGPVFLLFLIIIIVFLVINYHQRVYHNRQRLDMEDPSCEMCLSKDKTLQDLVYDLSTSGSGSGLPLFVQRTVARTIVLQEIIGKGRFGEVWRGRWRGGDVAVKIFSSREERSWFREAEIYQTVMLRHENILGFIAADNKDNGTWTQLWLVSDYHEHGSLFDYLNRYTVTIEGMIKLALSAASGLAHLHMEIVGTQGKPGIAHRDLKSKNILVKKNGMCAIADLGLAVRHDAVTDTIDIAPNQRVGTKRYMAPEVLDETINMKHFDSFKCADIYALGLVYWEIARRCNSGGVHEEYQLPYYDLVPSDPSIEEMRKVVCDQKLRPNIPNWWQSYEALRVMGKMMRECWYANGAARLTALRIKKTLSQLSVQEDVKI

[37] = target: PAS domain-containing serine/threonine-protein kinase (Homo sapiens, UniProt Q96RG2); experiment: Inhibition of PASK (unknown origin)
[38] = target: Muscle, skeletal receptor tyrosine-protein kinase (Homo sapiens) (UniProt O15146); details: dose 100.0 nM
Description: Inhibition of MUSK (unknown origin) at 100 nM relative to control

[39] = target: Ribosomal protein S6 kinase alpha-1 (Homo sapiens) (UniProt Q15418); details: dose 100.0 nM
Description: Inhibition of RPS6KA1 (unknown origin) at 100 nM relative to control

[40] = target: T2, Serine/threonine-protein kinase B-raf; experiment: Inhibition of BRAF (unknown origin)
[41] = target: Cyclin-dependent kinase 1/cyclin B1 (Homo sapiens, UniProt P06493); experiment: Inhibition of CDK1/cyclin B (unknown origin); type: protein-complex assay
Cyclin-dependent kinase 1/cyclin B1, sequence (P06493 whole entry): as the sequence (P06493 whole entry, looked up) above
Cyclin-dependent kinase 1/cyclin B1, sequence (P14635 whole entry, further chain): as the sequence (P14635 whole entry, looked up) above

[42] = target: Dual specificity protein kinase CLK3 (Homo sapiens, UniProt P49761); experiment: Inhibition of CLK3 (unknown origin)
[43] = target: Tyrosine-protein kinase Fes/Fps (Homo sapiens, UniProt P07332); experiment: Inhibition of FES (unknown origin)
[44] = target: Homeodomain-interacting protein kinase 4 (Homo sapiens) (UniProt Q8NE63); details: dose 100.0 nM
Description: Inhibition of HIPK4 (unknown origin) at 100 nM relative to control

[45] = target: AMP-activated protein kinase (AMPK) alpha-1/beta-1/gamma-1 (Homo sapiens, UniProt P54619+Q13131+Q9Y478); experiment: Inhibition of AMPK alpha1/beta1/gamma1 (unknown origin); type: protein-complex assay
[46] = target: High affinity nerve growth factor receptor (Homo sapiens, UniProt P04629); experiment: Inhibition of NTRK1 (unknown origin)
[47] = target: Serine/threonine-protein kinase PAK 4 (Homo sapiens, UniProt O96013); experiment: Inhibition of PAK4 (unknown origin)
[48] = species: Homo sapiens; details: dose 100.0 nM
Description: Inhibition of CDK2/cyclin A (unknown origin) at 100 nM relative to control

Question: With N#CCNC(=O)c1ccc(-c2ccnc(Nc3ccc(N4CCOCC4)cc3)n2)cc1 [MOMELOTINIB] as the compound, how does the IC50 [1] read?
Answer: < 1000 nM

Question: And the IC50 [2]?
Answer: > 1000 nM

Question: What about the IC50 [3] of the same compound?
Answer: > 1000 nM

Question: And the inhibition [4]?
Answer: < 50%

Question: What about the IC50 [5] of the same compound?
Answer: > 1000 nM

Question: What about the IC50 [6] of the same compound?
Answer: > 1000 nM

Question: What about the inhibition [7] of the same compound?
Answer: < 50%

Question: What about the inhibition [8] of the same compound?
Answer: < 50%

Question: And the IC50 [9]?
Answer: > 1000 nM

Question: And the IC50 [10]?
Answer: > 1000 nM

Question: What about the IC50 [11] of the same compound?
Answer: > 1000 nM

Question: And the IC50 [12]?
Answer: > 1000 nM

Question: What about the IC50 [13] of the same compound?
Answer: < 1000 nM

Question: And the IC50 [14]?
Answer: < 1000 nM

Question: What about the IC50 [15] of the same compound?
Answer: > 1000 nM

Question: What about the inhibition [16] of the same compound?
Answer: < 50%

Question: What about the IC50 [17] of the same compound?
Answer: > 1000 nM

Question: And the IC50 [18]?
Answer: < 1000 nM

Question: What about the inhibition [19] of the same compound?
Answer: > 50%

Question: And the IC50 [20]?
Answer: > 1000 nM

Question: What about the inhibition [21] of the same compound?
Answer: < 50%

Question: And the inhibition [22]?
Answer: < 50%

Question: And the inhibition [23]?
Answer: < 50%

Question: What about the IC50 [24] of the same compound?
Answer: > 1000 nM

Question: And the IC50 [25]?
Answer: > 1000 nM

Question: What about the IC50 [26] of the same compound?
Answer: < 1000 nM

Question: And the inhibition [27]?
Answer: < 50%

Question: And the IC50 [28]?
Answer: > 1000 nM

Question: What about the inhibition [29] of the same compound?
Answer: < 50%

Question: What about the inhibition [30] of the same compound?
Answer: < 50%

Question: What about the IC50 [31] of the same compound?
Answer: < 1000 nM

Question: And the IC50 [32]?
Answer: > 1000 nM

Question: What about the inhibition [33] of the same compound?
Answer: < 50%

Question: And the IC50 [34]?
Answer: < 1000 nM

Question: What about the IC50 [35] of the same compound?
Answer: > 1000 nM

Question: And the IC50 [36]?
Answer: < 1000 nM

Question: And the IC50 [37]?
Answer: > 1000 nM

Question: And the inhibition [38]?
Answer: < 50%

Question: What about the inhibition [39] of the same compound?
Answer: < 50%

Question: And the IC50 [40]?
Answer: < 1000 nM

Question: What about the IC50 [41] of the same compound?
Answer: < 1000 nM

Question: And the IC50 [42]?
Answer: > 1000 nM

Question: What about the IC50 [43] of the same compound?
Answer: > 1000 nM

Question: What about the inhibition [44] of the same compound?
Answer: < 50%

Question: And the IC50 [45]?
Answer: < 1000 nM

Question: What about the IC50 [46] of the same compound?
Answer: < 1000 nM

Question: What about the IC50 [47] of the same compound?
Answer: < 1000 nM

Question: And the inhibition [48]?
Answer: > 50%
